Source: PubChem BioAssay (NCI)
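Step 1: Grow cells in 96-well plates. Step 2: Expose to compound for 48 hours at 5 concentrations. Step 3: Interpolate endpoints linearly; if unreached, use highest concentration. TGI: total growth inhibition.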

Assays:
Assay in all cases: growth of human tumour cells (NCI), 48 h
A549 NSCLC = test system: A549 NSCLC
DLD-1 colon = test system: DLD-1 colon
EKVX NSCLC = test system: EKVX NSCLC
HCC-2998 colon = test system: HCC-2998 colon
HCT-116 colon = test system: HCT-116 colon
HOP-62 NSCLC = test system: HOP-62 NSCLC
HT29 colon = test system: HT29 colon
IGROV1 ovarian = test system: IGROV1 ovarian
KM20L2 colon = test system: KM20L2 colon
NCI-H226 lung = test system: NCI-H226 lung
OVCAR-8 ovarian = test system: OVCAR-8 ovarian
RXF 393 renal = test system: RXF 393 renal
SK-MEL-2 melanoma = test system: SK-MEL-2 melanoma
SN12C renal = test system: SN12C renal
SNB-19 CNS = test system: SNB-19 CNS
SNB-75 CNS = test system: SNB-75 CNS
SR leukemia = test system: SR leukemia
TK-10 renal = test system: TK-10 renal
UACC-257 melanoma = test system: UACC-257 melanoma
UO-31 renal = test system: UO-31 renal
XF 498 CNS = test system: XF 498 CNS
A498 renal = test system: A498 renal
ACHN renal = test system: ACHN renal
CCRF-CEM leukemia = test system: CCRF-CEM leukemia
COLO 205 colon = test system: COLO 205 colon
DMS 114 small cell lung = test system: DMS 114 small cell lung
DMS 273 small cell lung = test system: DMS 273 small cell lung
HCT-15 colon = test system: HCT-15 colon
HL-60(TB) leukemia = test system: HL-60(TB) leukemia
HOP-92 NSCLC = test system: HOP-92 NSCLC
KM12 colon = test system: KM12 colon
LOX IMVI melanoma = test system: LOX IMVI melanoma
LXFL 529 NSCLC = test system: LXFL 529 NSCLC
M14 melanoma = test system: M14 melanoma
M19-MEL melanoma = test system: M19-MEL melanoma
MALME-3M melanoma = test system: MALME-3M melanoma
MOLT-4 leukemia = test system: MOLT-4 leukemia
NCI-H23 lung = test system: NCI-H23 lung
NCI-H460 lung = test system: NCI-H460 lung
NCI-H522 lung = test system: NCI-H522 lung
OVCAR-3 ovarian = test system: OVCAR-3 ovarian
OVCAR-4 ovarian = test system: OVCAR-4 ovarian
OVCAR-5 ovarian = test system: OVCAR-5 ovarian
RPMI-8226 leukemia = test system: RPMI-8226 leukemia
SF-268 CNS = test system: SF-268 CNS
SF-295 CNS = test system: SF-295 CNS
SF-539 CNS = test system: SF-539 CNS
SK-MEL-28 melanoma = test system: SK-MEL-28 melanoma
SK-MEL-5 melanoma = test system: SK-MEL-5 melanoma
SK-OV-3 ovarian = test system: SK-OV-3 ovarian
SNB-78 CNS = test system: SNB-78 CNS
SW-620 colon = test system: SW-620 colon
U251 CNS = test system: U251 CNS
UACC-62 melanoma = test system: UACC-62 melanoma

Q: COc1c(C)cc2c(c1O)C1C3[C@H]4SC[C@@]5(NCCC6=C5NC5C=CC=CC65)C(=O)OCC(c5c6c(c(C)c(OC(C)=O)c54)OCO6)N3[C@@H](O)C(C2)N1C (stereo partly drawn) was tested. Which TGI (A549 NSCLC) did it give?
A: Its TGI is 1.72 µM.

Q: And the TGI (DLD-1 colon)?
A: The TGI was 1.92 µM.

Q: And the TGI (EKVX NSCLC)?
A: The TGI was 0.24 µM.

Q: And the TGI (HCC-2998 colon)?
A: The TGI was 0.0109 µM.

Q: What about the TGI (HCT-116 colon) of the same molecule?
A: Its TGI is greater than 100 µM.

Q: And the TGI (HOP-62 NSCLC)?
A: The TGI was less than 0.01 µM.

Q: What about the TGI (HT29 colon) of the same molecule?
A: Its TGI is 10.3 µM.

Q: And the TGI (IGROV1 ovarian)?
A: The TGI was 1.85 µM.

Q: And the TGI (KM20L2 colon)?
A: The TGI was 1.45 µM.

Q: What about the TGI (NCI-H226 lung) of the same molecule?
A: Its TGI is 0.0859 µM.

Q: And the TGI (OVCAR-8 ovarian)?
A: The TGI was less than 0.01 µM.

Q: And the TGI (RXF 393 renal)?
A: The TGI was less than 0.01 µM.

Q: What about the TGI (SK-MEL-2 melanoma) of the same molecule?
A: Its TGI is less than 0.01 µM.

Q: And the TGI (SN12C renal)?
A: The TGI was 1.3 µM.

Q: And the TGI (SNB-19 CNS)?
A: Its TGI is 3.64 µM.

Q: And the TGI (SNB-75 CNS)?
A: Its TGI is less than 0.01 µM.

Q: What about the TGI (SR leukemia) of the same molecule?
A: The TGI was greater than 100 µM.

Q: What about the TGI (TK-10 renal) of the same molecule?
A: The TGI was 12.8 µM.

Q: What about the TGI (UACC-257 melanoma) of the same molecule?
A: The TGI was less than 0.01 µM.

Q: What about the TGI (UO-31 renal) of the same molecule?
A: Its TGI is 0.0112 µM.

Q: What about the TGI (XF 498 CNS) of the same molecule?
A: The TGI was less than 0.01 µM.

Q: How did the TGI (A498 renal) turn out when Clc1ccc(C[P+](c2ccccc2)(c2ccccc2)c2ccccc2)c(Cl)c1 was run?
A: The TGI was 30.6 µM.

Q: And the TGI (A549 NSCLC)?
A: The TGI was 32.5 µM.

Q: What about the TGI (ACHN renal) of the same molecule?
A: Its TGI is 47.6 µM.

Q: What about the TGI (CCRF-CEM leukemia) of the same molecule?
A: Its TGI is 21.3 µM.

Q: And the TGI (COLO 205 colon)?
A: The TGI was 2.44 µM.

Q: What about the TGI (DMS 114 small cell lung) of the same molecule?
A: Its TGI is 6 µM.

Q: And the TGI (DMS 273 small cell lung)?
A: Its TGI is 10.1 µM.

Q: And the TGI (EKVX NSCLC)?
A: Its TGI is 31.4 µM.

Q: What about the TGI (HCC-2998 colon) of the same molecule?
A: Its TGI is 15.1 µM.

Q: What about the TGI (HCT-116 colon) of the same molecule?
A: The TGI was 10.3 µM.

Q: What about the TGI (HCT-15 colon) of the same molecule?
A: The TGI was greater than 100 µM.

Q: And the TGI (HL-60(TB) leukemia)?
A: Its TGI is 3.25 µM.

Q: What about the TGI (HOP-62 NSCLC) of the same molecule?
A: The TGI was 27.9 µM.

Q: And the TGI (HOP-92 NSCLC)?
A: The TGI was 5.76 µM.

Q: And the TGI (HT29 colon)?
A: Its TGI is 10.4 µM.

Q: What about the TGI (IGROV1 ovarian) of the same molecule?
A: Its TGI is 15.6 µM.

Q: What about the TGI (KM12 colon) of the same molecule?
A: The TGI was 7.01 µM.

Q: And the TGI (KM20L2 colon)?
A: Its TGI is 18.9 µM.

Q: What about the TGI (LOX IMVI melanoma) of the same molecule?
A: The TGI was 12.9 µM.

Q: What about the TGI (LXFL 529 NSCLC) of the same molecule?
A: The TGI was 12.5 µM.

Q: What about the TGI (M14 melanoma) of the same molecule?
A: The TGI was 14.3 µM.

Q: And the TGI (M19-MEL melanoma)?
A: The TGI was 11.5 µM.

Q: And the TGI (MALME-3M melanoma)?
A: The TGI was 15.7 µM.

Q: And the TGI (MOLT-4 leukemia)?
A: Its TGI is 18.1 µM.

Q: And the TGI (NCI-H226 lung)?
A: Its TGI is 7.77 µM.

Q: What about the TGI (NCI-H23 lung) of the same molecule?
A: Its TGI is 13 µM.

Q: What about the TGI (NCI-H460 lung) of the same molecule?
A: The TGI was 11.8 µM.

Q: And the TGI (NCI-H522 lung)?
A: The TGI was 7.18 µM.

Q: What about the TGI (OVCAR-3 ovarian) of the same molecule?
A: Its TGI is 13.8 µM.

Q: And the TGI (OVCAR-4 ovarian)?
A: Its TGI is 35.6 µM.

Q: What about the TGI (OVCAR-5 ovarian) of the same molecule?
A: The TGI was 18.9 µM.

Q: What about the TGI (OVCAR-8 ovarian) of the same molecule?
A: Its TGI is 20.1 µM.

Q: And the TGI (RPMI-8226 leukemia)?
A: The TGI was 5.31 µM.

Q: What about the TGI (RXF 393 renal) of the same molecule?
A: The TGI was 8.67 µM.

Q: What about the TGI (SF-268 CNS) of the same molecule?
A: Its TGI is 24 µM.

Q: And the TGI (SF-295 CNS)?
A: The TGI was 12.3 µM.

Q: What about the TGI (SF-539 CNS) of the same molecule?
A: Its TGI is 15.8 µM.

Q: What about the TGI (SK-MEL-2 melanoma) of the same molecule?
A: The TGI was 7.71 µM.

Q: And the TGI (SK-MEL-28 melanoma)?
A: The TGI was 20.1 µM.

Q: And the TGI (SK-MEL-5 melanoma)?
A: Its TGI is 3.38 µM.

Q: And the TGI (SK-OV-3 ovarian)?
A: The TGI was 24.4 µM.

Q: What about the TGI (SN12C renal) of the same molecule?
A: Its TGI is 12.4 µM.

Q: What about the TGI (SNB-19 CNS) of the same molecule?
A: The TGI was 13 µM.

Q: What about the TGI (SNB-75 CNS) of the same molecule?
A: The TGI was 7.54 µM.

Q: And the TGI (SNB-78 CNS)?
A: Its TGI is 11 µM.

Q: And the TGI (SR leukemia)?
A: The TGI was 8.13 µM.

Q: And the TGI (SW-620 colon)?
A: The TGI was 21.4 µM.

Q: What about the TGI (TK-10 renal) of the same molecule?
A: The TGI was 25.6 µM.

Q: What about the TGI (U251 CNS) of the same molecule?
A: The TGI was 18.8 µM.

Q: What about the TGI (UACC-257 melanoma) of the same molecule?
A: The TGI was 7.64 µM.

Q: What about the TGI (UACC-62 melanoma) of the same molecule?
A: Its TGI is 12.6 µM.

Q: What about the TGI (XF 498 CNS) of the same molecule?
A: The TGI was 4.4 µM.
